Legend:
PI3K-gamma = PI3K-gamma (Homo sapiens, UniProt P48736); experiment: PI3K Inhibition Assay; format: biochemical
Procedure: Using a Biomek FX from Beckman Coulter, 1.5 μL of each of ten 2.5-fold serial dilutions of a compound of the invention in 100% DMSO was added to an individual well (hereafter, “test well”) in a 96 well polystyrene plate [Corning, Costar Item No. 3697]. One test well also contained 1.5 μL of DMSO with no compound. […] Using a Titertek Multidrop, 50 μL of Reaction Mix [100 mM HEPES pH 7.5, 50 mM NaCl, 10 mM DTT, 0.2 mg/mL BSA, 60 μM phosphatidylinositol(4,5)bisphosphate diC16 (PI(4,5)P2; Avanti Polar Lipids, Cat. No. 840046P) and PI3K isoform of interest (see Table 3 for isoform concentrations)] was added to each well. To initiate the reaction, 50 μL of ATP Mix [20 mM MgCl2, 6 μM ATP (100 μCi/μmole ^33P-ATP)] was added each well, followed by incubating the wells for 30 min. at 25° C. Final concentrations in each well were 50 mM HEPES 7.5, 10 mM MgCl2, 25 mM NaCl, 5 mM DTT, 0.1 mg/mL BSA, 30 μM PI(4,5)P2, 3 μM ATP, and the PI3K isoform of interest (see Table 2). Final compound concentrations in each well ranged from 10 μM to 1 nM.
After incubation, the reactions in each well were quenched by addition of 50 μL of stop solution [30% TCA/Water, 10 mM ATP]. […] 50 μL of scintillation fluid was added to each well and the plate read on a Perkin-Elmer TopCount™ NXT liquid scintillation counter to obtain ^33P-counts representing inhibition values. […]

activated microglia = experiment: Microglia Activation Assay (LPS-injected mice, Iba1 IHC of brain); format: in vivo, Female C57B1/6J mice; settings: 10 mg/kg b.i.d. orally by gavage, 4 doses, LPS 0.5 mg/kg i.p. for three days
Procedure: Female C57B1/6J mice (7 weeks old) were purchased from Jackson Laboratory (Maine, US). Animals were acclimated for a week at standard laboratory conditions (12 hrs light cycles) with free access to rodent chow and water. All procedures were in accordance with the National Institute of Health Guidelines for the care and Use of Laboratory Animals and were approved by IACUCC. The endotoxin Lipopolysaccharide (LPS) (E. coli 011:B4, cat#437627) was purchased from Calbiochem. LPS was dissolved in PBS buffer at a concentration of 0.05 mg/ml and stored in frozen aliquots. At the start of the study, mice received an intraperitoneal (i.p.) injection of LPS (0.5 mg/kg) for three consecutive days. Therapeutic treatment with VRT compounds was started together with the 2nd LPS administration and maintained throughout the study. Compound was dosed twice a day orally by gavage for a total of 4 doses. 24 h following the last LPS injection, and 2 hrs following the last VRT dose, animals were sacrificed by CO2 asphyxiation. […]
Digital images were captured using the Aperio ScanScope Slide Scanner (Aperio Technologies, Vista, Calif.). Images were captured at 20× optical magnification, and analyzed using the software Definiens Developer XD. […] Compound efficacy was calculated as percent decrease in number of activated microglia relative to vehicle control.

Chain of PI3K-gamma (P48736 whole entry, species assumed, canonical isoform): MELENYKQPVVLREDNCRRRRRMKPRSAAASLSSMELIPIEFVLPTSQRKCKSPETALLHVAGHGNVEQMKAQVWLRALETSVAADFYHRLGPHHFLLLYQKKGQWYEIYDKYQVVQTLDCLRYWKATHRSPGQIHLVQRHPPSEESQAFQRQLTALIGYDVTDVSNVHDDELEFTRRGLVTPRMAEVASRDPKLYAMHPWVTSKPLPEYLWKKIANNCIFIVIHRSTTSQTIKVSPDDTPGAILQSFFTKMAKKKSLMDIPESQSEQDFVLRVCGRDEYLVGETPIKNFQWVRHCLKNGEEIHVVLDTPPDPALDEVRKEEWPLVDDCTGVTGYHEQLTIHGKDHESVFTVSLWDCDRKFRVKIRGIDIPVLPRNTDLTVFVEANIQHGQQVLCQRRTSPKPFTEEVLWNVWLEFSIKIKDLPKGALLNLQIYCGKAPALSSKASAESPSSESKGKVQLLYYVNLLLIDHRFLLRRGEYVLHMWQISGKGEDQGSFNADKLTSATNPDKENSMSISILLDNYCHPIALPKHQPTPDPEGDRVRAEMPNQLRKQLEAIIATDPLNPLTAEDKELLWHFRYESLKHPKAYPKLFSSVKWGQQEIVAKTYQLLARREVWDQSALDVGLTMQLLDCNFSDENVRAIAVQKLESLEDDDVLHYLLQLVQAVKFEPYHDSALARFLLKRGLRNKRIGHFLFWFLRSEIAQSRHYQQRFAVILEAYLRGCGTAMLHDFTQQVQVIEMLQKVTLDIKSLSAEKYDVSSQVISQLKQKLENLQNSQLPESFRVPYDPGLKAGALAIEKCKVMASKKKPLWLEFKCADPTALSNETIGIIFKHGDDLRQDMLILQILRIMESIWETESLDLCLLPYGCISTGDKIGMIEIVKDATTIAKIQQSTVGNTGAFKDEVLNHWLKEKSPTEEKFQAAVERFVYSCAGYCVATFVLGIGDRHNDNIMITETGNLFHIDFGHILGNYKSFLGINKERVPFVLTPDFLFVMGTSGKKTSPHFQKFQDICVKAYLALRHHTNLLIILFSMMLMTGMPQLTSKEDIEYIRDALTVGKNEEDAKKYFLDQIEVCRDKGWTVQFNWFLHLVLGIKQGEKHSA

Ki (PI3K-gamma) [nM]	SMILES	percent decrease in number of activated microglia relative to vehicle control (activated microglia) [%]
500 to 2500	COc1cc(-c2nc3c(cc2C)C(=O)N(c2cn[nH]c2)C3)cnc1OC [Compound 238, 2-(5,6-dimethoxypyridin-3-yl)-3-methyl-6-(1H-pyrazol-4-yl)-6,7-dihydro-5H-pyrrolo[3,4-b]pyridin-5-one]	–
–	Cc1cc(-c2cncc(OC(F)F)c2)nc2c1C(=O)N(c1cnn(CC(F)(F)F)c1)C2 [Compound 271]	39

Reference: patent US20120040950A1, “ISOINDOLINONE INHIBITORS OF PHOSPHATIDYLINOSITOL 3-KINASE” (VERTEX PHARMACEUTICALS INCORPORATED, priority 2009, published 2012)
